# Reference: patent US20050130986A1, “Treatment of spondylarthropathies” (priority 2003, published 2005)
# “Also recorded” adds a separate entry of the source.
# Assays:
# [1] = tested on: patient with psoriasis arthropathy
# spondylarthropathy = conditions: cited from earlier work; for efficacy observed in spondylarthropathy: mainly in the treatment of peripheral arthritis
# [2] = tested on: patient with severe spondyloarthropathy; experiment: Findings in a patient with severe spondyloarthropathy (Example 1, 18 month treatment); type: in vivo, human; conditions: for efficacy of previous anti-rheumatic medication: patient history, used alone and in various combinations
# Text: The patient is a person who has radiologically verified bilateral sacroilitis and disease of large joints. They are also positive for the HLA-B27 antigen. The patient fulfills the ESSG criteria and the Amor criteria for spondylarthorpathy. […] In addition they have had symptoms also in small peripheral joints such as fingers and toes. […] The previous anti-rheumatic medication has included methotrexate, cyclosporine, infliximab, intramusclar.
# During the study the vital signs and blood chemistry was controlled first weekly, then biweekly and after three months once per month.
# No corticosteroid injections are given.
compound,measurement,setting,value
"CN(Cc1cnc2nc(N)nc(N)c2n1)c1ccc(C(=O)N[C@@H](CCC(=O)O)C(=O)O)cc1 [methotrexate, reference compound]",efficacy of previous anti-rheumatic therapy,"[1]; patient history, methotrexate 20 mg per week, cyclosporine 150 mg, discontinued",lack of efficacy
same,efficacy in sporiasis arthropathy,spondylarthropathy; in vivo,some efficacy
same,efficacy observed in spondylarthropathy,spondylarthropathy,minor efficacy
same,efficacy of previous anti-rheumatic medication,[2],inefficient
infliximab,efficacy of previous anti-rheumatic medication,[2],inefficient
"Cc1ccc(NC(=O)c2ccc(CN3CCN(C)CC3)cc2)cc1Nc1nccc(-c2cccnc2)n1 [study drug, 4-[(4-methyl-1-piperazin-1-ylmethyl)-N-[4-methyl-3-[4-(3-pyridinyl)-2-pyrimidinyl]amino]phenyl]benzamide Monomethanesulfonate]",side effects or infections during the treatment,[1]; 3 month study,No serious side effects or infections; also recorded: slight tiredness and mild muscle cramps
same,number of swollen joints,"[1]; after three month treatment, from 5, oral, up to 400 mg per day, added to naproxen, injected joints omitted",2
same,BASDAI score,"[1]; after three month treatment, from 6.5",3.1
same,number of tender joints,"[1]; after three month treatment, from 10",0
same,general pain (VAS),"[1]; after three month treatment, from 33 mm",12 mm
same,night pain experienced by the patient (VAS),"[1]; after three month treatment, from 34 mm",4 mm
same,ESR,"[1]; after three month treatment, from 40",12
same,disease activity (VAS),"[1]; after three month treatment, from 41 mm",23 mm
same,CRP,"[1]; after three month treatment, from 47",25
same,infections during the treatment,[2]; 18 months of treatment,no significant infections
same,swollen joint count,"[2]; after 18 month treatment, 31 before treatment, oral, up to 400 mg per day, added to hydroxychloroquine, prednisone, ibuprofen",5
same,side effects,[2]; after 18 months of treatment,no serious side effects have been observed; also recorded: slight dryness of the skin
same,health assessment questionnaire score (HAQ),"[2]; after 18 months of treatment, 1.5 before treatment, high score = high disability",0.75
same,time after start at which antirheumatic effect could be observed (movements in shoulder joints improved),[2]; after study drug was started,two
same,CRP,"[2]; after the treatment (18 months), 42 mg/L before treatment",11 mg/L
same,tender joint count,"[2]; after the treatment (18 months), 10 before treatment",1
same,erythrocyte sedimentation rate,"[2]; after the treatment (18 months), 28 mm/h before treatment",11 mm/h
same,"pain experienced by the patient, visual analogue scale (VAS)","[2]; after treatment (18 months), 37 mm before treatment",11 mm
same,disease activity as estimated by the patient (VAS),"[2]; after treatment (18 months), 69 mm before treatment",11 mm
"Cc1oncc1C(=O)Nc1ccc(C(F)(F)F)cc1 [leflunomide, reference compound]",efficacy of previous anti-rheumatic medication,[2],inefficient
O=C(O)c1cc(/N=N/c2ccc(S(=O)(=O)Nc3ccccn3)cc2)ccc1O [sulfasalazine],efficacy observed in spondylarthropathy,spondylarthropathy,minor efficacy
"Cn1cnc([N+](=O)[O-])c1Sc1ncnc2nc[nH]c12 [azathioprine, reference compound]",efficacy of previous anti-rheumatic medication,[2],inefficient
